Experimental data: US20220170028A1, “NOVEL INTERLEUKIN-2 VARIANTS AND BIFUNCTIONAL FUSION MOLECULES THEREOF” (Cugene Inc, priority 2019, published 2022)

Experiments:
[1] = system: Treg cells; assay: Treg pharmacodynamics in mice after repeated administration Q3D (Example 11); type: in vivo, mouse; conditions: 0.3 mg/kg s.c.
Procedure: Female Balb/C mice (7-week old) were acclimated in house for 5-7 days before the study. Vehicle (PBS), 0.3 mg/kg of P-0511, P-0512, P-0531, or Benchmark-1 compound were subcutaneously administered to mice (n=5/group) on days 0, 3, and 6. On days 3 and 9, three days after the first injection and multiple (3) injections, respectively, peripheral blood was collected. Based on earlier in vivo experiments, Treg cell activation, proliferation, and expansion were expected to peak on day 3, and thus three days post injection was selected for data collection and analysis. Changes in blood lymphocyte activation, proliferation, and expansion were measured by flow cytometry. P-0531 is the S125I equivalent of the wild type IL-2 fusion protein. The Benchmark-1 contains V91K mutation.

[2] = system: STAT5 phosphorylation in NK cells; assay: STAT5 phosphorylation in CD56+ NK cells, human PBMC; type: cell-based
From the text: The Stat5 phosphorylation activity on other responder cells than CD4+ T cell subsets, including CD8+T and NK, by P-0511 was compared to P-0531, the S125I equivalent of wild-type P-0250. […] IL-2 receptors expressed on CD4+ Tconv, CD8+T and NK cells are primarily dimeric IL-2Rs, comprising IL-2R6 and γc.

[3] = Aggregate content by size-exclusion chromatography after Protein A purification; type: physicochemical; conditions: Isoleucine-125 constructs; after MabSelectSure
Procedure: For affinity chromatography each supernatant was loaded on a HiTrap MabSelectSure column (CV=5 mL, GE Healthcare) equilibrated with 25 ml phosphate buffered saline, pH 7.2 (ThermoFisher). Unbound protein was removed by washing with 5 column volumes PBS, pH 7.2 and target protein was eluted with 25 mM sodium citrate, 25 mM sodium chloride, pH 3.2. Protein solution was neutralized by adding 3% of 1 M Tris pH 10.2. Ion exchange chromatography or mix-mode chromatography, including but not limited to CaptoMMC (GE Healthcare), ceramic hydroxyapatite, or ceramic fluoroapatite (Bio-Rad) was also utilized to polish the Protein A material as needed. Target protein was concentrated with an Amicon®Ultra-15 concentrator 10 KDa NMWC (Merck Millipore Ltd.)
The purity and molecular weight of the purified constructs were analyzed by SDS-PAGE with and in the absence of a reducing agent and staining with Coomassie (Imperial® Stain). The NuPAGE® Pre-Cast gel system (4-12% or 8-16% Bis-Tris, ThermoFisher) was used according to the manufacturer's instructions. The protein concentration of purified protein samples was determined by measuring the UV absorbance at 280 nm (Nanodrop Spectrophotometer, ThermoFisher) divided by the molar extinction coefficient calculated on the basis of the amino acid sequence. The aggregate content of the constructs was analyzed on an Agilent 1200 high-performance liquid chromatography (HPLC) system. Samples were injected onto an AdvanceBio size-exclusion column (300 Å, 4.6×150 mm, 2.7 μm, LC column, Agilent) using 150 mM sodium phosphate, pH 7.0 as the mobile phase at 25° C.
S125I substitution was thus introduced into a number of IL-2 variant Fc fusion molecules. The constructs harboring Ile-125 substitution in IL-2 were expressed using the same vector and in the same culturing conditions as their Ser-125 counterparts and purified using MabSelectSure. The expression level in mg/L and purity assessed by SEC chromatography in aggregation % of exemplary molecules are summarized in Table 6. The two molecules in the same row of Table 6 share the same other amino acid substitution(s) and differ only at residue 125 with either serine or isoleucine. As an example, the SEC chromatogram and SDS-PAGE pictures of P-0447 (SEQ ID NO: 173) and its Ile-125 counterpart P-0511 (SEQ ID NO: 213) were further illustrated in FIGS. 1D and 1E.

[4] = system: NK cells; assay: NK cell proliferation, CFSE dilution, human PBMC; type: cell-based; conditions: 5 or 7 days incubation
Procedure: (§1) Further, P-0511 and P-0512 were tested for their ability to stimulate NK and CD8+ T cells proliferation in comparison with the wild type and benchmark molecules. Intracellular fluorescent label carboxyfluorescein diacetate succinimidyl ester (CFSE) method was utilized. Briefly, human PBMC (1×10^5 cells/well) were labeled with CFSE, plated onto 96-well plates, and incubated with increasing concentrations of different IL-2 compounds. Cells were then harvested after 5 or 7 days of incubation and stained with either anti-CD56-APC antibody for NK cells or anti-CD8-APC antibody for CD8+ T cells; and analyzed by flow cytometry. Data are expressed as a percent of divided cells and illustrated in FIG. 10A for CD8+ T cell proliferation and FIG. 10B for NK cell proliferation.

[5] = system: CD4+ Tconv cells, CD8 T cells and NK cells; assay: Effector T cell and NK cell proliferation and expansion in mice after a single subcutaneous injection (Example 9); type: in vivo, mouse; conditions: 0.3 mg/kg single s.c., C57/BL6 mice
Procedure: IL-2 variant Fc fusion proteins were administered to mice and their ability to preferentially proliferate and expand regulatory T cells (CD4+CD25+FoxP3+ T cells) over effector T cells and NK cells were determined in vivo.
Female C57/BL6 mice (7-week old) were received from Charles River Laboratory and acclimated in house for at least 7 days before the study. Vehicle (PBS), 0.3 mg/kg of each test compounds, or IL-2 benchmark compounds were subcutaneously administered to mice on day 0. Peripheral blood samples were collected into heparin-treated tubes on days 3, 5 and 7 post-treatment. Each group contained 6 mice and baseline blood was collected 2 days prior to the treatment (day −2). After red blood cell lysis, total viable mononuclear blood cells were counted by trypan blue dead cell exclusion method and proceeded to intracellular staining for immune cell phenotype and Ki67 proliferation markers using flow cytometric analysis. Cells were stained separately with two panels of antibodies as listed: 1) anti-mouse Foxp3-FITC, Ki67-PE, anti-mouse CD25-APC and anti-mouse CD4-Percpcy5.5 (1:50 dilution) for CD4+T-regulatory cells (Treg); 2) anti-mouse CD3-FITC, Ki67-PE, anti-mouse CD335-APC and anti-mouse CD8-Percpcy5.5 (1:50 dilution) for CD8+T and NK cells.

[6] = system: CD4+ Tconv cells, CD8 Teff and NK cells; assay: Dose-response pharmacodynamics, CD4+ Tconv, CD8 and NK cells in mice (Example 10); type: in vivo, mouse; conditions: single s.c. dose, Balb/C mice
Procedure: Following a single subcutaneous administration of vehicle (PBS) or P-0511 (1, 0.3, 0.1, or 0.03 mg/kg) to female Balb/C mice (n=5/group), peripheral blood was collected on day −2 as baseline, and post dose on days 3, 5, and 7. On day 7, mice were sacrificed, and spleens were harvested. Blood lymphocyte phenotyping, proliferation and expansion were measured by flow cytometry at each timepoint using fresh whole blood.

[7] = system: CD8+ T cells; assay: CD8+ T cell proliferation, CFSE dilution, human PBMC; type: cell-based; conditions: 5 or 7 days incubation
Procedure: as §1

In the case of “P-0511: IL-2 L19H/S125I/Q126E Fc fusion, SEQ ID NO: 213”, the “% Treg over total CD4 T cells or over total lymphocytes” value ([1]; after three consecutive Q3D treatments) is reported as “sustained at significantly high levels”, the “Treg cell counts, fold changes relative to PBS and Treg/Tconv ratio” value ([1]; repeated dosing Q3D) is reported as “superior capabilities to sustain Treg pool and maintain Treg selectivity” and the “STAT5 phosphorylation activity in NK cells (in words)” value [2] is reported as “nearly completely abolished”. The “Aggregation % (SEC)” value [3] was 0.7%, the “potency in stimulating NK cell proliferation (in words)” value [4] was “on par with Benchmark-3” and the “Ki67 stimulation on CD8 T cells and NK cells in vivo (in words)” value [5] was “mild Ki67 stimulation”. For the same substance, the “expansion of CD4+ Tconv cells, CD8 T cells or NK cells in vivo” value [5] was “No significant expansion”, the “percentages of CD4+ Tconv, CD8 Teff and NK cells over the total lymphocytes” value [6] was “no statistically significant changes” and the “potency in stimulating CD8+ T cell proliferation (in words)” value [7] was “on par with Benchmark-3”.
